# Test results: paper PMC5853643, “Bombesin receptor subtype‐3‐expressing neurons regulate energy homeostasis through a novel neuronal pathway in the hypothalamus” (Brain and Behavior, 2017)
# Biological target: T1, Bombesin receptor subtype‐3 (BRS‐3) (Rattus norvegicus, UniProt Q8K418)
# T1 construct: gene Brs3
# T1 sequence (Q8K418 1-399): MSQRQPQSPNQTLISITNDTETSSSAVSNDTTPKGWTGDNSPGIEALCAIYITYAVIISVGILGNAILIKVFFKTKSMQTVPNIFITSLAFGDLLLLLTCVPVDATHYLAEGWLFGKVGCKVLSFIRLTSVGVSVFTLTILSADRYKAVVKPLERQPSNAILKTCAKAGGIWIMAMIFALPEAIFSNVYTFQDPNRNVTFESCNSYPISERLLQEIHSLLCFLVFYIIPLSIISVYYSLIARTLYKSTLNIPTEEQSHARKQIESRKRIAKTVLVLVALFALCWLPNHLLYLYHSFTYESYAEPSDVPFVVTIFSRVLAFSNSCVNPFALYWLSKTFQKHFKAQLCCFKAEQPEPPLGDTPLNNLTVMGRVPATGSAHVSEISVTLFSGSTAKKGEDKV
# Experiment: agonist-induced Ca2+ mobilization, aequorin bioluminescence assay in CHO-K1 cells overexpressing BRS-3
# Format: cell-based
row,EC50,SMILES
1,100 nM,"COc1ccc2c(c1)C(=O)N(Cc1ccccc1)C(C(=O)NC(C)(C)C)c1ccccc1-2 (racemic) [compound-A, 6‐benzyl‐N‐tert‐butyl‐9‐methoxy‐7‐oxo‐6,7‐dihydro‐5H‐dibenzo[c,e]azepine‐5‐carboxamide]"
2,130 nM,"COc1ccc2c(c1)C(=O)N(Cc1ccccc1)C(C(=O)NC(C)(C)C)c1ccccc1-2 (racemic) [compound-C, compound‐C]"
